Data: patent publication US12409112B2, “Pressurized nanoemulsion” (Biofrontera Bioscience GmbH, priority 2023, dated 2025)

Legend:
[1] = ALA content over storage time in BF200 with PX=2%; assay type: physicochemical; conditions: BF200 with PX=2% and 3% ALA
Experimental: Nanoemulsion formulations BF200 PX=2% glass and BF200 PX=2% foam were prepared as described in Example 5. The nanoemulsion formulations were stored at 25° C. and 2-8° C. The content of ALA was determined at 0 (starting point) and various time points during the 36 months storage period.

[2] = TC content over storage time in BF220 with PX=4%; assay type: physicochemical; conditions: BF220 with PX=4% and 0.1% TC
Experimental: Nanoemulsion formulations BF220 TC=0.1% glass and BF220 TC=0.1% foam were prepared as described in Example 6. The nanoemulsion formulations were stored at 2-8° C. The content of TC was determined at 0 (starting point) and various time points during the 36 months storage period.

[3] = cited from earlier work
[4] = room temperature; cited from earlier work

| Preservation of API content, pressurized cans versus conventional storing units (glass vials) ([1]; 25° C. and 2-8° C., all conditions) | ALA content ([1]; after 36 months storage at 2-25° C.) | Preservation of API content, pressurized cans versus conventional storing units (glass vials) ([2]; 2-8° C.) | TC content ([2]; after 36 months storage at 2-8° C.) | SMILES | octanol-water partition coefficient (log P) [3] | Stability in aqueous formulations [4] |
| --- | --- | --- | --- | --- | --- | --- |
| better | at least 90% |  |  | NCC(=O)CCC(=O)O [ALA, 5-aminolevulinic acid] |  |  |
|  |  | better | at least 90% | C=CC[C@@H]1/C=C(\C)C[C@H](C)C[C@H](OC)[C@H]2O[C@@](O)(C(=O)C(=O)N3CCCC[C@H]3C(=O)O[C@H](/C(C)=C/[C@@H]3CC[C@@H](O)[C@H](OC)C3)[C@H](C)[C@@H](O)CC1=O)[C@H](C)C[C@@H]2OC [TC, Tacrolimus] | > 3 | approx. 90 days |
